Source: patent publication US12351587B2, “Bicyclic compound as RIP-1 kinase inhibitor and application thereof” (MEDSHINE DISCOVERY INC., priority 2019, dated 2025)

Columns and labels:
[1] = Plasma protein binding rate (PPB), rat plasma; type: in vitro ADME, SD rats; conditions: 2 μM, dialysis 4 hours 37° C.
Description: 796 μL of bank plasma from humans, SD rats and CD-1 mice (plasma purchased from BioreclamationIVT) were weighed, and the assay compound working solution or warfarin working solution was added so that the final concentration of the assay compound and warfarin in the plasma sample was 2 μM. The samples were mixed thoroughly. The final concentration of DMSO in the organic phase was 0.5%, 50 μL of plasma samples of the assay compound and warfarin were pipetted to a sample receiving plate, and the corresponding volume of the corresponding blank plasma or buffer was added immediately, so that the final volume in each sample well was 100 μL, wherein the volume ratio of plasma:dialysis buffer was 1:1. Stop solution was then added to these samples. These samples were used as T0 samples for determination of recovery and stability. The plasma samples of the assay compound and warfarin were added to the dosing end of each dialysis well, and blank dialysis buffer was added to the corresponding receiving end of the dialysis well. […] All samples were subjected to protein precipitation, and then analyzed by LC/MS/MS. Unbound rate (% Unbound), bound rate (% Bound), and recovery rate (% Recovery) of the compound were calculated using the following formulae: % Unbound=100*FC/TC, % Bond=100−% Unbound, and % Recovery=100*[…]/T0, […]

RIP1 = biological target: T1, RIP1 (Homo sapiens, UniProt Q13546); assay: Kinase selectivity assay (Eurofins, 33P radiolabeled kinase activity): RIP1; type: biochemical; conditions: WX009 1 μM, ATP 10 μM, read-out: Inhibition rate
T1 construct: purchased Eurofins Pharma Discovery Service
T1 sequence (Q13546 1-671): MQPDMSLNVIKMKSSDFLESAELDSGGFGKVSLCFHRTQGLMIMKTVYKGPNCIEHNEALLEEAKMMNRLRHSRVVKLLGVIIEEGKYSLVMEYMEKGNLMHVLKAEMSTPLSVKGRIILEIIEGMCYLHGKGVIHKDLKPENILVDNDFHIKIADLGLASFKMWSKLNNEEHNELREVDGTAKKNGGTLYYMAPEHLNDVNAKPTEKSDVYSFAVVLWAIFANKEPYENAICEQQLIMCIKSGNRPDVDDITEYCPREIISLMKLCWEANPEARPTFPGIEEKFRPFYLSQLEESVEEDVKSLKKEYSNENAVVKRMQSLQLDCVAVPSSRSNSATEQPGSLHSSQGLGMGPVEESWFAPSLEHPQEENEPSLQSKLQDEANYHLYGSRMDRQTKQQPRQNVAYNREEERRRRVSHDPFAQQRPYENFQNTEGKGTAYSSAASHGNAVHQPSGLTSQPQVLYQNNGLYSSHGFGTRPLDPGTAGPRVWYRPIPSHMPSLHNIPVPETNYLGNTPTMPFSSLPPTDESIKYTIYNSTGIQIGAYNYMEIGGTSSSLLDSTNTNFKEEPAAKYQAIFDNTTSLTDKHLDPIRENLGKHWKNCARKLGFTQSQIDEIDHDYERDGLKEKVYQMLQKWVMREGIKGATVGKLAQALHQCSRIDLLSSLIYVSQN
Description: The purpose of this assay was to detect the in vitro inhibitory activity of WX009 on a variety of kinases. The kinases used in this assay included 413 kinases, and the activity detection method was provided by Eurofins Pharma Discovery Service A method of detecting ^33P radiolabeled kinase activity was used for the assay. The concentration of WX009 was 1 μM, and the concentration of ATP was 10 μM.

[2] = In vitro Caco-2 cell permeability assay; type: in vitro ADME; conditions: human, pH 7.4, Caco-2, 2 μM
Description: MEM (minimum essential medium) supplemented with 2 mM L-glutamine, 10% Fetal Bovine Serum (FBS), 100 U/mL penicillin-G and 100 μg/mL streptomycin was used for cell culture. The conditions for cell culture were 37±1° C., 5% CO2 and saturated humidity. When cells were grown to 80-90% confluency, trypsin (0.05%, w/v)/EDTA (0.02% w/v) digestion solution was added to digest the cells for seeding. The cells were seeded in BD Falcon's Transwell-96-well plate at a seeding density of 1×10^5 cells/cm^2. The cells were cultured in a carbon dioxide incubator for 22 days and then used for transport assay. […]
In this assay, liquid chromatography tandem mass spectrometry (LC/MS/MS) was used to semi-quantitatively analyze the peak area ratio of the assay compound and the control substances fenoterol, propranolol and digoxin to the internal standard in the starting solution, the receiving solution, and the supernatant of the dosing well. […]
Apparent permeability coefficient (Papp, cm/s), efflux rate and recovery rate were calculated using the following formulae.
The apparent permeability coefficient (Papp, cm/s) was calculated using the following formula: Papp=(dCr/dt)×Vr/(A×C0) […]
The efflux rate was calculated using the following formula: Efflux rate=Papp(BA)/Papp(AB) The recovery rate was calculated using the following formula: % recovery rate=100×[(Vr×Cr)+(Vd×Cd)]/(Vd×C0) […]

Compound: CN1C(=S)[C@@H](NC(=O)c2ncn(Cc3ccccc3)n2)COc2cccnc21 [WX009]
- PPB_Unbound [1]: 29.7%
- inhibition at 1 µM (RIP1): > 80%
- Papp at 120 min, 2 μM ([2]; 120 minutes, pH 7.40, read-out: Apparent permeability coefficient): 18.4 ×10⁻⁶ cm/s
- efflux ratio at 120 min, 2 μM ([2]; Papp(BA)/Papp(AB), read-out: Efflux rate): 0.75
